Laboratory results taken from patent US12055553B2, “Method for diagnosing risk for inflammatory disease through glycan profiling” (The Regents of the University of California, priority 2017, dated 2024).

What was measured:
Caco-2 cells = assay type: cell-based; details: for change in sialylated glycans / change in fucosylated glycans / fucosylation: fucose 25 mM, butyrate 10 mM; for decrease in sialylated glycans collectively / increase in fucosylated glycans collectively: GlcNAc 25 mM, cell line not given; for change in fucosylated glycans / fucosylation: acetate, lactate; for fold decrease of Hex6HexNAc6Fuc1NeuAc3 / fold decrease of Hex7HexNAc7Fuc1NeuAc1 / fold increase of Hex6HexNAc6NeuAc1: Caco-2, SCFA 10 mM; for change in high mannose type glycans / change in the groups of cell surface glycans presented: treated vs untreated; for change in high mannose type glycans / decrease in fucosylated compounds: lactose 70 mg/L; for change in non-decorated complex/hybrid type N-glycans: galactose; for decrease in fucosylated compounds: high galactose; for change in the groups of cell surface glycans presented: glucose 25 mM, glutamate 2 mM, glutathione 2 mM
Procedure: (§1) We examined whether supplementation of free monosacchaides derived from diet changes N-glycosylation outcomes on the intestinal cell-surface at concentrations relevant to physiological conditions. Changes in glycosylation were assessed by globally releasing glycans from membrane proteins extracted from fully differentiated (Caco-2) and partially differentiated (HT-29) intestinal epithelial cells and analyzing the mixture by porous graphitized carbon (PGC)-LC-MS. […] The glycan profile under normal growth conditions was used as a frame of reference with which to compare the glycome at varied environments.
(§2) Human colorectal adenocarcinoma Caco-2 cells derived from a person, were obtained from American Type Culture Collection (ATCC, VA) and grown in Eagle's Minimum Essential Medium (EMEM) supplemented with non-essential amino acids, 2 mM L-glutamine, 10% (v/v) fetal bovine serum (Life Technologies, NY), 1 mM sodium pyruvate, 1.5 g/L sodium bicarbonate, 100 U/mL penicillin, and 100 μg/mL streptomycin. Alternatively, Caco-2 cells were grown in Dulbecco's Modified Eagle's Medium (DMEM) supplemented with 10% (v/v) fetal bovine serum, 100 U/mL penicillin, and 100 μg/mL streptomycin. Human colorectal adenocarcinoma HT-29 cells, derived from a person, were obtained from ATCC and grown in McCoy's 5A medium supplemented with 10% (v/v) fetal bovine serum, 100 U/mL penicillin, and 100 μg/mL streptomycin. Cells were subcultured at 80% confluency and maintained at 37° C. in a humidified incubator with 5% CO=2. All treatments were added to the media after cell differentiation. Caco-2 cells were fully differentiated 14-days post-confluency. HT-29 cells were partially differentiated 4-days post-confluency. After 72 h, cells were collected in biological triplicates by scraping A fixed count of 2×10^6 viable cells was used for each experiment Passage number between experiments was controlled to no higher than P40 and a delta P of no more than 20. High passage cells were scraped after P80. Media was renewed three times a week unless specified. Monolayer integrity and quality of cell borders were evaluated under the microscope routinely during growth and before harvest.
(§3) In brief harvested cells were resuspended in homogenization buffer containing 0.25 M sucrose, 20 mM HEPES-KOH (pH 7.4), and 1:100 protease inhibitor (EMD Millipore, CA). Cell lysis was performed on ice using a probe sonicator (Qsonica, CT) with five alternating and on and off pulses in 5 and 10 s intervals, respectively. Lysates were […] at 2,000×g for 10 min to remove the nuclear fraction and cellular debris. The supernatant was collected and brought to 1 mL with homogenization buffer for ultracentrifugation at 200,000×g for 45 min at 4° C. The pallet was resuspended and repelleted by ultracentrifugation in 0.2 M Na2CO3 (pH 11) followed by water to fragment the endoplasmic reticulum and remove the cytoplasmic fraction, respectively. The resulting membrane faction was isolated and stored at −20° C. until further processing.
(§4) Membrane pellets were resuspended with 100 μL of 100 mM ammonium bicarbonate in 5 mM dithiothreitol and heated for 10 s at 100° C. to thermally denature the proteins. […] After addition of 400 μL of chilled ethanol, samples were placed in −80° C. for 1.5 h and centrifuged for 20 min at 21,130×g to precipitate residual deglycosylated proteins. The supernatant containing the released N-glycans was collected and dried. N-Glycans were purified by solid phase extraction containing a porous graphitized carbon (PGC) matrix. Eluted fractions were dried in vacuo.

THP-1 cells = test: Lectin array of THP-1 monocyte cell surface glycan composition after monosaccharide supplementation; assay type: cell-based; details: 3 days
Procedure: THP-1 cells (monocyte cell line) were incubated with different sugars (i.e. monosaccharides) for 3 days. Lectin arrays were used to detect changes in the cell surface glycan composition. Secreted HDL from the cell supernatant (monocytes secrete their own HDL) was isolated and then analyzed to determine the glycan composition.
• ConA (Concanavalin A): binds internal and nonreducing terminal α-D-mannosyl (αMan) and α-D-glucosyl groups (αGIc) • JAC (Jacalin): binds galactose-containing O-glycoproteins (Galβ3GalNac) • SNA (Sambucus nigra): binds sialic acid attached to terminal galactose in α-2,6 and to a lesser degree, α-2,3 linkage (Neu5Acα6Gal/GalNac) • AAL (Aleuria auanda lectin): binds fucose linked (α-1,6) to N-acetylglucosamine or to fucose linked (α-1,3) to N-acetyllactosamine related structures, exposed core (α-1, 6) and outer arm (α-1, 2 or α-1, 3) linked fucose moieties. Sugar Treatments: • L-fucose: Tested 2 doses: 300 umol/L (physiologic) and 100 mmol/L. (Marquardt T, Blood, December 15; 94(12):3976-85, 1999): Named L-Fuc Low and L-Fuc High • Fructose: Tested 2 doses: 27 mmol/L (physiologic) and 100 mmol/L. (Hui H, Pancreas, August 38(6): 706-12, 2009); Named Fruc Low and Fruc High • N-acetylglucosamine (GlcNAc): Tested 1 dose: 100 mmol/L. (Villiger TK, Controlling the time evolution of mAb N-finked glycosylation, Part I: Microbioreactor experiments, Biotechnol Prog, September; 32(5):1123-1134, 2016) • Galactose: The two doses for the galactose treatment in the glycan array experiments were: 150 mmol/L and 75 mmol/L. (Villiger TK, Controlling the time evolution of mAb N-linked glycosylation, Part II: Model-based predictions, Biotechnol Prog, September; 32(5):135-1148, 2016)

HT-29 cells = test: Cell surface N-glycan profiling (PGC-LC-MS) of HT-29 after supplementation; assay type: cell-based, Human; details: for change in high mannose type glycans: glutamate 2 mM; for change in the HT-29 glycome / major groups of glycans: acetate, lactate 10 mM, glutathione 2 mM
Procedure: as §1, §2, §3, §4

[1] = Caco-2, 72 h, Ac5-Sia up to 10 mM, glutamine 10 mM
[2] = single dose (GlcNAc 100 mmol/L) or dose not distinguished
[3] = high dose (galactose 150 mmol/L, fructose 100 mmol/L, L-fucose 100 mmol/L)
[4] = low dose (galactose 75 mmol/L, fructose 27 mmol/L, L-fucose 300 umol/L)
[5] = HT-29, 72 h, fructose 50 mM, glutamine 10 mM

## CC(=O)N[C@H]1[C@H]([C@H](OC(C)=O)[C@@H](COC(C)=O)OC(C)=O)OC(OC(C)=O)(C(=O)O)C[C@@H]1OC(C)=O (stereo partly drawn) [Ac5-Sia, 2,4,7,8,9-penta-O-acetyl N-acetylneuraminic acid]
Caco-2 cells; Ac5-Sia up to 10 mM, 72 h
  change in monofucosylated glycans: significant increases
Caco-2 cells; [1]
  change in sialylated glycans: remained relatively unchanged

## CC(=O)N[C@H]1C(O)O[C@H](CO)[C@H](O)[C@@H]1O (stereo partly drawn) [GalNAc, N-acetylgalactosamine]
Caco-2 cells; 72 h, GalNAc
  decrease in sialylated glycans collectively: 31.9%
  increase in fucosylated glycans collectively: 120%
Caco-2 cells; Caco-2, 72 h, fructose 50 mM, GalNAc
  increase in abundance of non-decorated complex/hybrid type N-glycans: 234%
Caco-2 cells; GalNAc supplementation, 72 h
  fold increase of Hex3HexNAc4Fuc1: 13 fold
  fold increase of Hex3HexNAc5Fuc1: 7 fold

## CC(=O)N[C@H]1C(O)O[C@H](CO)[C@@H](O)[C@@H]1O (stereo partly drawn) [GlcNAc, N-acetylglucosamine]
THP-1 cells; [2]
  AAL binding (fucosylated glycans): decreased
  ConA binding (glucose or mannose-terminated glycans): decreased
  JAC binding (terminal galactose containing glycans): decreased
  SNA binding (terminal sialic acid): did not change
Caco-2 cells; 72 h, GalNAc
  decrease in sialylated glycans collectively: 53.9%
  increase in fucosylated glycans collectively: 61.2%

## CC(=O)O [acetate]
Caco-2 cells; Caco-2, 72 h, glutamine 10 mM
  change in fucosylated glycans / fucosylation: significant increase
Caco-2 cells; 72 h
  fold decrease of Hex6HexNAc6Fuc1NeuAc3: 4.7 fold
  fold decrease of Hex7HexNAc7Fuc1NeuAc1: 2.7 fold
  fold increase of Hex6HexNAc6NeuAc1: 8.1 fold

## CCCC(=O)O [butyrate]
HT-29 cells; HT-29, butyrate 10 mM, 72 h
  fold increase of each of Hex3HexNAc4Fuc1, Hex6HexNAc7Fuc1, Hex7HexNAc7Fuc1: more than 13 fold
  increase in fucosylation: 262%

## C[C@H](O)[C@@H](O)[C@@H](O)[C@H](O)C=O [fucose, L-fucose]
THP-1 cells; [3]
  AAL binding (fucosylated glycans): decreased
  ConA binding (glucose or mannose-terminated glycans): decreased
  JAC binding (terminal galactose containing glycans): decreased
  SNA binding (terminal sialic acid): increased
THP-1 cells; [4]
  AAL binding (fucosylated glycans): decreased
  ConA binding (glucose or mannose-terminated glycans): decreased
  JAC binding (terminal galactose containing glycans): decreased
  SNA binding (terminal sialic acid): increased
Caco-2 cells; [1]
  change in sialylated glycans: overall decrease
Caco-2 cells; Caco-2, 72 h, glutamine 10 mM
  change in fucosylated glycans / fucosylation: neither the total levels nor the degree of fucosylation deviated significantly

## O=C[C@H](O)[C@@H](O)[C@@H](O)[C@H](O)CO [galactose]
THP-1 cells; [3]
  AAL binding (fucosylated glycans): increased
  ConA binding (glucose or mannose-terminated glycans): increased
  JAC binding (terminal galactose containing glycans): increased
  SNA binding (terminal sialic acid): increased
THP-1 cells; [4]
  JAC binding (terminal galactose containing glycans): decreased
  SNA binding (terminal sialic acid): increased
Caco-2 cells; Caco-2, 72 h, glutamine 10 mM
  change in high mannose type glycans: significant Increases
  change in non-decorated complex/hybrid type N-glycans: significant Increases
Caco-2 cells; Caco-2, 72 h
  decrease in fucosylated compounds: 20%
Caco-2 cells; Caco-2, galactose-treated, 72 h
  decrease in relative abundances of fucosylated and sialylated glycans: 12-28%
Caco-2 cells; galactose-treated Caco-2 (untreated 15%)
  afucosylated glycans as share of all complex/hybrid glycans: 46%
Caco-2 cells; galactose-treated Caco-2 (untreated 23%)
  asialylated glycans as share of all complex/hybrid glycans: 58%

## N[C@@H](CCC(=O)O)C(=O)O [glutamate]
Caco-2 cells; Caco-2, 72 h
  change in the groups of cell surface glycans presented: relatively unaffected
HT-29 cells; [5]
  change in high mannose type glycans: unperturbed
HT-29 cells; HT-29, glutamate 2 mM, 72 h
  decline in fucosylation with respect to the control: 44.4%

## NC(=O)CC[C@H](N)C(=O)O [glutamine, L-glutamine]
Caco-2 cells; Caco-2, 72 h, glutamine 10 mM
  change in high mannose type glycans: significant increases
  change in fucosylated glycans / fucosylation: significant increases
  change in non-decorated complex/hybrid type N-glycans: significant increases
Caco-2 cells; Caco-2, 72 h, fructose 50 mM, glutamine 10 mM
  increase in abundance of high mannose type N-glycans: 507%
Caco-2 cells; [1]
  change in sialylated glycans: remarkable constancy
Caco-2 cells; Caco-2, glutamine 10 mM, 72 h
  fold increase of each of Man 5-Man 9: more than 6 fold
HT-29 cells; [5]
  change in fucosylated glycans: significant increases
  change in high mannose type glycans: significant increases
HT-29 cells; HT-29, glutamine 10 mM, 72 h
  change in non-decorated complex/hybrid types of glycans: significant increases

## N[C@@H](CCC(=O)N[C@@H](CS)C(=O)NCC(=O)O)C(=O)O [glutathione]
Caco-2 cells; Caco-2, 72 h
  change in the groups of cell surface glycans presented: essentially unaltered
HT-29 cells; HT-29, 72 h
  change in the HT-29 glycome / major groups of glycans: essentially unaltered
HT-29 cells; HT-29, glutathione 2 mM, 72 h
  increase in high mannose type glycans: 37.1%

## CC(O)C(=O)O (stereo not drawn) [lactate]
Caco-2 cells; Caco-2, 72 h, glutamine 10 mM
  change in fucosylated glycans / fucosylation: significant increase
Caco-2 cells; 72 h
  fold decrease of Hex6HexNAc6Fuc1NeuAc3: 3.7 fold
  fold decrease of Hex7HexNAc7Fuc1NeuAc1: 3.4 fold
  fold increase of Hex6HexNAc6NeuAc1: 10 fold
HT-29 cells; HT-29, 72 h
  change in the HT-29 glycome / major groups of glycans: minimal effects

## OC[C@H]1O[C@@H](O[C@H]2[C@H](O)[C@@H](O)C(O)O[C@@H]2CO)[C@H](O)[C@@H](O)[C@H]1O (stereo partly drawn) [lactose]
Caco-2 cells; Caco-2, 72 h, glutamine 10 mM
  change in high mannose type glycans: did not cause dramatic changes
Caco-2 cells; Caco-2, 72 h
  decrease in fucosylated compounds: 20%
